Source: ChEMBL document CHEMBL5052842, “Pharmaceutical compounds and their use as inhibitors of ubiquitin specific protease 19 (usp19)” (2020)

molecular target: T1, Ubiquitin carboxyl-terminal hydrolase 19 (Homo sapiens, UniProt O94966); test: Inhibition of C-terminal His6-tagged recombinant human USP19 using iso-peptide ubiquitin-Lys-TAMRA as substrate incubated for 30 mins and measured after 90 mins by fluorescent polarization assay
T1 sequence (O94966 whole entry): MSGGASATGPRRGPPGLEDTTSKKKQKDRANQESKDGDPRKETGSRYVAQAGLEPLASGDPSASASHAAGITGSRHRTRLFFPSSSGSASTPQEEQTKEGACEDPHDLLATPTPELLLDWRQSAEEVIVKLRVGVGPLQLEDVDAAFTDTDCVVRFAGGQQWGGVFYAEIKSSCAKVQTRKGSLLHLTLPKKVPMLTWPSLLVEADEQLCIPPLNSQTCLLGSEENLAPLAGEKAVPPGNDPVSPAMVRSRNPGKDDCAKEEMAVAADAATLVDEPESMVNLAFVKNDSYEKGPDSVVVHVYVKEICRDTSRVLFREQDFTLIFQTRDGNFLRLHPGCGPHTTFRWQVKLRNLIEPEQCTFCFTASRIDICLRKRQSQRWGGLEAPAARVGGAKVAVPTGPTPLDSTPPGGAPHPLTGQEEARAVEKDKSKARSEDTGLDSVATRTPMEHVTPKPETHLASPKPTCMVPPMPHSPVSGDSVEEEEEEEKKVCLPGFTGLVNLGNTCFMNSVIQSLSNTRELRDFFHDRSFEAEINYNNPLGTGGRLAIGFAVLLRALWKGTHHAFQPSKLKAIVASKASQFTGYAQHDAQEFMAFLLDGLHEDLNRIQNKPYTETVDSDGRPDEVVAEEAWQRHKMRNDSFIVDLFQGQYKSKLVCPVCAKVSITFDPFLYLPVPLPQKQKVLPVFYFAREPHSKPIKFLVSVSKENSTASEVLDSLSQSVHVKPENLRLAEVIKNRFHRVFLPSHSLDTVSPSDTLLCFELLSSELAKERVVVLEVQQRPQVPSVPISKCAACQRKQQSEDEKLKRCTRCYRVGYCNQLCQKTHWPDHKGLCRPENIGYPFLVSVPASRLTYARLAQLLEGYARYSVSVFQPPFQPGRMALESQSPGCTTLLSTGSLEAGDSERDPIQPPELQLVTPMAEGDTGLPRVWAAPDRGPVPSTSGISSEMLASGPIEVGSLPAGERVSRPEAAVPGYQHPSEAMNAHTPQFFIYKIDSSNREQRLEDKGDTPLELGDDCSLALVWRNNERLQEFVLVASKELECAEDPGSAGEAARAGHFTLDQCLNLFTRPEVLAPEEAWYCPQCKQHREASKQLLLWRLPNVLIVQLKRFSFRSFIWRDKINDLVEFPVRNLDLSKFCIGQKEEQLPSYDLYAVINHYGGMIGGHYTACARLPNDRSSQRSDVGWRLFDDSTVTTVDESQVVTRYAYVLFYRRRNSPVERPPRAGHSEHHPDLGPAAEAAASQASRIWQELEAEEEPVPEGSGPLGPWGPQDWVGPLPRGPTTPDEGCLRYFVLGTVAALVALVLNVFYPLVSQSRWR

IC50, < 500 nM:
O=C(N1CC[C@@](O)(Cn2cnc(-c3ccccc3F)cc2=O)C2(CCCC2)C1)N1CCNC[C@H]1c1cc(F)cc(F)c1, O=C(N1CC[C@@](O)(Cn2cnc(-c3ccccc3)cc2=O)C2(CCCC2)C1)N1CCNC[C@H]1c1cc(F)ccc1F, C[C@@]1(c2ccccc2)CNCCN1C(=O)N1CC[C@@](O)(Cn2cnc(-c3ccccc3)cc2=O)C2(CCCC2)C1, O=C(N1CC[C@@](O)(Cn2cnc(-c3cccc(F)c3)cc2=O)C2(CCCC2)C1)N1CCNC[C@H]1c1cc(F)ccc1F, Cc1cccc(-c2cc(=O)n(C[C@]3(O)CCN(C(=O)N4CCNC[C@H]4c4cc(F)ccc4F)CC34CCCC4)cn2)c1, O=C(N1CC[C@@](O)(Cn2cnc(-c3ccccc3F)cc2=O)C2(CCCC2)C1)N1CCNC[C@H]1c1cc(F)ccc1F, COc1ccccc1-c1cc(=O)n(C[C@]2(O)CCN(C(=O)N3CCNC[C@H]3c3cc(F)ccc3F)CC23CCCC3)cn1, N[C@H]1CCN(C(=O)N2CC[C@@](O)(Cn3cnc(-c4ccccc4)cc3=O)C3(CCCC3)C2)[C@H](c2ccccc2)C1, O=C(N1CC[C@@](O)(Cn2ccc(-c3ccccc3F)cc2=O)C2(CCCC2)C1)N1CCNC[C@H]1c1cccc(F)c1, O=C(N1CC[C@@](O)(Cn2ccc(-c3ccccc3)cc2=O)C2(CCCC2)C1)N1CCNC[C@H]1c1cc(F)ccc1F, O=C(N1CC[C@@](O)(Cn2cnc(-c3ccccc3)cc2=O)C2(CCCC2)C1)N1CCSC[C@H]1c1cc(F)ccc1F, O=C(N1CC[C@@](O)(Cn2cnc(C3CC3)cc2=O)C2(CCCC2)C1)N1CCNC[C@H]1c1cc(F)ccc1F, O=C(N1CC[C@@](O)(Cn2cnc(N3CC4CC4C3)cc2=O)C2(CCCC2)C1)N1CCNC[C@H]1c1cc(F)ccc1F (stereo not given in full), COc1ccc(F)cc1-c1cc(=O)n(C[C@]2(O)CCN(C(=O)N3CCNC[C@H]3c3ccccc3)CC23CCCC3)cn1, O=C(N1CC[C@@](O)(Cn2cnc(-c3ccccc3)cc2=O)C2(CCCC2)C1)N1CCS(=O)(=O)C[C@H]1c1cc(F)ccc1F, O=C(N1CC[C@@](O)(Cn2cnc(-c3cccc(F)c3F)cc2=O)C2(CCCC2)C1)N1CCNC[C@H]1c1ccccc1, N[C@@H]1CCN(C(=O)N2CC[C@@](O)(Cn3cnc(-c4ccccc4)cc3=O)C3(CCCC3)C2)[C@H](c2ccccc2)C1, O=C(N1CC[C@@](O)(Cn2cnc(C3CC3)cc2=O)C2(CCCC2)C1)N1CCNC[C@H]1c1cccc(F)c1, O=C(N1CC[C@@](O)(Cn2cnc(-c3ccccc3)cc2=O)C2(CCCC2)C1)N1CCNCC1c1ccc(F)c(F)c1 (stereo not given in full), Cc1cccc(F)c1-c1cc(=O)n(C[C@]2(O)CCN(C(=O)N3CCNC[C@H]3c3ccccc3)CC23CCCC3)cn1, O=C(N1CC[C@@](O)(Cn2cnc(-c3cccc(F)c3)cc2=O)C2(CCCC2)C1)N1CCNC[C@H]1c1cccc(F)c1, COc1c(F)cccc1-c1cc(=O)n(C[C@]2(O)CCN(C(=O)N3CCNC[C@H]3c3ccccc3)CC23CCCC3)cn1, O=C(N1CC[C@@](O)(Cn2cnc(-c3ccccc3)cc2=O)C2(CCCC2)C1)N1CCNCC1c1cc(F)cc(F)c1 (stereo not given in full), N=S1(=O)CCN(C(=O)N2CC[C@@](O)(Cn3cnc(-c4ccccc4)cc3=O)C3(CCCC3)C2)[C@H](c2cc(F)ccc2F)C1 (stereo not given in full), COc1cccc(F)c1-c1cc(=O)n(C[C@]2(O)CCN(C(=O)N3CCNC[C@H]3c3ccccc3)CC23CCCC3)cn1
